The record followed here is ChEMBL document CHEMBL1759914, “The solvolysis of topotecan in alcohols and acetic anhydride” (Bioorg Med Chem Lett, 2011).

For test [1], the system named is KB. The experiment in a line: Antitumor activity against human KB cells by WST-1 assay. The class given is functional, cell-based.
Test [2] relates to HepG2. The experiment in a line: Antitumor activity against human HepG2 cells by WST-1 assay. The class given is functional, cell-based.
Test [3] is described as follows: Antitumor activity against mouse C26 cells by WST-1 assay. The class given is functional, cell-based.
Test [4] in a line: Ratio of compound IC50 to 10-hydroxycamptothecin IC50 for mouse C26 cells. The format is functional.

For the compound `CCOCc1c(O)ccc2nc3c(cc12)Cn1c-3cc2c(c1=O)COC(=O)[C@]2(O)CC`, the figures for the IC50 in test [1], in test [2] and in test [3] were 19.7 µM, 3.91 µM and 29.1 µM, respectively.

As for `CC[C@@]1(O)C(=O)OCc2c1cc1n(c2=O)Cc2cc3c(COC)c(O)ccc3nc2-1`, the values for the IC50 in test [1], in test [2] and in test [3] were 25.4 µM, 92.1 µM and 101 µM, respectively.

Take `CC[C@@]1(O)C(=O)OCc2c1cc1n(c2=O)Cc2cc3cc(O)ccc3nc2-1` [HYDROXYCAMPTOTHECIN]: the IC50 in test [1] was found to be 0.829 µM; in test [2], 0.981 µM; in test [3], 0.496 µM.

Turning to `CC[C@@]1(O)C(=O)OCc2c1cc1n(c2=O)Cc2cc3c(COC(C)(C)C)c(O)ccc3nc2-1`, the figures for the IC50 in test [1], in test [2] and in test [3] were 1.38 µM, 0.802 µM and 0.273 µM, respectively.

Take `CC[C@@]1(O)C(=O)OCc2c1cc1n(c2=O)Cc2cc3c(COC(C)=O)c(OC(C)=O)ccc3nc2-1`: the figures for the IC50 in test [1], in test [2] and in test [3] were 0.794 µM, 1 µM and 0.157 µM, respectively. In test [4], the “Ratio IC50” value came to 3.

`CC[C@@]1(O)C(=O)OCc2c1cc1n(c2=O)Cc2cc3c(COC(C)C)c(O)ccc3nc2-1`: the results for the IC50 in test [1], in test [2] and in test [3] were 7.25 µM, 13.5 µM and 3.88 µM, respectively.

Consider `CC[C@@]1(OC(C)=O)C(=O)OCc2c1cc1n(c2=O)Cc2cc3c(COC(C)=O)c(OC(C)=O)ccc3nc2-1`, for which the results for the IC50 in test [1], in test [2] and in test [3] were 1.15 µM, 1.31 µM and 0.424 µM, respectively.
